Ki data for nine molecules are collected here from patent US5804593A, “α-Amino sulfonyl hydroxamic acids as matrix metalloproteinase inhibitors” (Pharmacia & Upjohn Company, priority 1997, dated 1998).

pKi: −log10 of the molar value.

What is called pKi is −log10 of the Ki, conventionally taken in molar units.

This assay deals with Gelatinase. As to the kind of experiment: particle concentration fluorescence assay of MMP inhibition in vitro. It counts as biochemical. The following applies: fluorescein/biotin-labelled substrate, avidin-coated particles, room temperature, pH 7.5. The method, then:
Inhibitory activity is evaluated in one or more of the MMP enzymes (stromelysin, gelatinase, and collagenase) in vitro using particle concentration fluorescence assay. An inhibitor binds to MMP enzymes which prevents the degradation of a substrate by stromelysin, gelatinase, or collagenase. The substrate has attached to it a fluorescein and a biotin moiety. The intact substrate then binds to an avidin-coated particle via the biotin moiety. Once the particle is washed and dried, a fluorescent signal is generated since the fluorescent group is attached to the particle. Without an inhibitor present, the substrate is degraded by MMP enzymes and the fluorescein group is removed, therefore, no fluorescent signal can be detected. Testing compounds are dissolved in DMSO to the desired concentration, then the solutions are diluted to 1:5 with MMP buffer (50 mM Tris-HCl, pH 7.5; 150 mM NaCl; 0.02% NaN3). Serial two-fold dilutions of each compound are prepared. A concentrated, activated enzyme solution is transferred into each plate of the testing compounds, and the mixture is incubated at room temperature for 15 minutes. Thawed MMP substrate is then added into all plates, and the plates are incubated in the dark for 1-3 hours at room temperature. At this point, the substrate mixture is mixed with 0.1% avidin-coated polystyrene particles. After 15 minutes, the fluorescence values are measured following filtration and washing of the beads. Ki values are then calculated.

On to `COc1ccc(S(=O)(=O)N[C@H](Cc2c[nH]c3ccccc23)C(=O)NO)cc1` [Example 1, N-hydroxy-2(R)-[(4-methoxybenzenesulfonyl)amino]-3-(3-indolyl)-propanamide], for which the pKi is 8.11.
The result for `O=C(NO)[C@@H](Cc1c[nH]c2ccccc12)NS(=O)(=O)c1ccccc1` [Example 2, N-hydroxy-2(R)-[(benzenesulfonyl)amino]-3-(3-indolyl)-propanamide] reads 7.85; that for `O=C(NO)[C@@H](Cc1c[nH]c2ccccc12)NS(=O)(=O)c1ccc(F)cc1` [Example 3, N-hydroxy-2(R)-[(4-fluorobenzenesulfonyl)-amino]-3-(3-indolyl)-propanamide], 7.10; that for `COc1ccc(S(=O)(=O)N[C@H](Cc2ccccc2)C(=O)NO)cc1` [Example 4, N-hydroxy-2(R)-[(4-methoxybenzenesulfonyl)-amino]-3-phenyl-propanamide], 8.14.
Molecule `O=C(NO)[C@@H](Cc1c[nH]c2ccccc12)NS(=O)(=O)c1ccc(Br)cc1` [Example 5, N-hydroxy-2(R)-[(4-bromobenzenesulfonyl)amino]-3-(3-indolyl)-propanamide] had a pKi of 8.59.
The result for `CCCCCCCCS(=O)(=O)N[C@H](Cc1c[nH]c2ccccc12)C(=O)NO` [Example 6, N-hydroxy-2(R)-[(n-octylsulfonyl)amino]-3-(3-indolyl)-propanamide] reads 7.92; that for `COc1ccc(S(=O)(=O)N[C@@H](C(=O)NO)c2ccccc2)cc1` [Example 7, N-hydroxy-2(R)-[(4-methoxybenzenesulfonyl)amino]-2-phenyl acetamide], 8.48.
The result for `CC(C)[C@@H](NS(=O)(=O)c1ccccc1)C(=O)NO` [Example 9, N-hydroxy-2(R)-[(benzenesulfonyl)amino]-3-methyl butanamide] reads 7.09; that for `CCC(C)(C)C(NS(=O)(=O)c1ccc(OC)cc1)C(=O)NO` (stereo not drawn) [Example 10, N-Hydroxy-2-[(4-methoxybenzenesulfonyl)-amino]-3,3-dimethyl pentanamide], 8.01.
